Measurements taken from ChEMBL document CHEMBL2401664, “De novo tyrosinase inhibitor: 4-(6,7-dihydro-5H-indeno[5,6-d]thiazol-2-yl)benzene-1,3-diol (MHY1556)” (Bioorg Med Chem Lett, 2013).

Experiments:
[1] = biological target: T1, Tyrosinase (Agaricus bisporus, UniProt O42713); assay: Inhibition of mushroom tyrosinase using L-tyrosine as substrate assessed as amount of dopachrome produced after 30 mins by spectrophotometry
T1 sequence (O42713 whole entry): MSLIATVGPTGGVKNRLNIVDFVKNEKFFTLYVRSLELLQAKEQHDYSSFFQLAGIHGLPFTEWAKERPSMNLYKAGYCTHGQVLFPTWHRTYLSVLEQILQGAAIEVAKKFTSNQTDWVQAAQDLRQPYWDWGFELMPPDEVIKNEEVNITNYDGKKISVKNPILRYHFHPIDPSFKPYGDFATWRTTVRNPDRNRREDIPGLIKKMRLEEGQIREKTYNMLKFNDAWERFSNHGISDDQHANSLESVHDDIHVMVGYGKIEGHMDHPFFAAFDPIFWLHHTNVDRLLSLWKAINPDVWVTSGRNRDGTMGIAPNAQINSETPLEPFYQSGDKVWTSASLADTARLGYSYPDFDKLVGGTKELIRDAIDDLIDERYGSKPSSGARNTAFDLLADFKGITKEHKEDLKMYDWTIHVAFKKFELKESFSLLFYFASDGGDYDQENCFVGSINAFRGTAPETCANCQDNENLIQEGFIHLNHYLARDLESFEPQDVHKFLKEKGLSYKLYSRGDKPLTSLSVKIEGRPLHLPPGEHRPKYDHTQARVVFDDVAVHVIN

[2] = Cytotoxicity against mouse B16F10 cells assessed as cell viability at 20 uM after 48 hrs by MTT assay; format: cell-based, B16-F10; conditions: read-out: Activity
[3] = system: B16-F10; assay: Inhibition of alphaMSH-induced melanin production in mouse B16F10 cells at 0.2 uM after 48 hrs by melanin content assay (reference value: 163.78 %); format: functional; conditions: B16-F10, 48 h
[4] = biological target: T2, Tyrosinase (Mus musculus) (UniProt P11344); assay: Inhibition of tyrosinase in mouse B16F10 cells assessed as L-DOPA oxidation at 0.1 uM after 24 hrs by ELISA (reference value: […] %); format: cell-based; conditions: B16-F10
T2 sequence (whole entry): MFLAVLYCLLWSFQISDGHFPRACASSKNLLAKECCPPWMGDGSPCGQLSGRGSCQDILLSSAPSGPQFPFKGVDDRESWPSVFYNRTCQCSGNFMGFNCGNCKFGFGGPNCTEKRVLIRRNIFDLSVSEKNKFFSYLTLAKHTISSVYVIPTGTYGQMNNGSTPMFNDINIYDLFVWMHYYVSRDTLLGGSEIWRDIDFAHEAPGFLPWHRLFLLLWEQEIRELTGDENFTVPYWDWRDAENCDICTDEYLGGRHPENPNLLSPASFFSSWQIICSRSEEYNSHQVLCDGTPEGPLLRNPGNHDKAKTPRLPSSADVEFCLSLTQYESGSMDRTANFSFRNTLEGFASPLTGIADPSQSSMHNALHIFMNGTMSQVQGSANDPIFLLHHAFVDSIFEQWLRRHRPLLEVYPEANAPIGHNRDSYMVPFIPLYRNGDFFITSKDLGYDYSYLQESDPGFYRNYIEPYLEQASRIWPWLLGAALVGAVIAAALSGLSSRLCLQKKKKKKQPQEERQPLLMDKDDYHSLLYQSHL

[5] = system: B16-F10; assay: Inhibition of alphaMSH-induced melanin production in mouse B16F10 cells at 0.05 uM after 48 hrs by melanin content assay (reference value: 163.78 %); format: functional; conditions: B16-F10, 48 h
[6] = biological target: T3, Tyrosinase (Agaricus bisporus) (UniProt O42713); assay: Inhibition of mushroom tyrosinase using L-tyrosine as substrate assessed as amount of dopachrome produced at 0.1 uM after 30 mins by spectrophotometry
T3 sequence (whole entry): T1 sequence (O42713 whole entry)

[7] = Cytotoxicity against mouse B16F10 cells assessed as cell viability at 5 uM after 48 hrs by MTT assay; format: cell-based, B16-F10; conditions: read-out: Activity
[8] = Cytotoxicity against mouse B16F10 cells assessed as cell viability at 40 uM after 48 hrs by MTT assay; format: cell-based, B16-F10; conditions: read-out: Activity
[9] = system: B16-F10; assay: Inhibition of alphaMSH-induced melanin production in mouse B16F10 cells at 2 uM after 48 hrs by melanin content assay (reference value: 163.78 %); format: functional; conditions: B16-F10, 48 h
[10] = biological target: T3, Tyrosinase (Agaricus bisporus); assay: Inhibition of mushroom tyrosinase using L-tyrosine as substrate assessed as amount of dopachrome produced at 1 uM after 30 mins by spectrophotometry
[11] = system: B16-F10; assay: Inhibition of alphaMSH-induced melanin production in mouse B16F10 cells at 0.1 uM after 48 hrs by melanin content assay (reference value: 163.78 %); format: functional; conditions: B16-F10, 48 h
[12] = biological target: T3, Tyrosinase (Agaricus bisporus); assay: Inhibition of mushroom tyrosinase using L-tyrosine as substrate assessed as amount of dopachrome produced at 0.8 uM after 30 mins by spectrophotometry
[13] = Cytotoxicity against mouse B16F10 cells assessed as cell viability at 10 uM after 48 hrs by MTT assay; format: cell-based, B16-F10; conditions: read-out: Activity
[14] = biological target: T2, Tyrosinase (Mus musculus); assay: Inhibition of tyrosinase in mouse B16F10 cells assessed as L-DOPA oxidation at 0.2 uM after 24 hrs by ELISA (reference value: […] %); format: cell-based; conditions: B16-F10
[15] = Cytotoxicity against mouse B16F10 cells assessed as cell viability at 2 uM after 48 hrs by MTT assay; format: cell-based, B16-F10; conditions: read-out: Activity
[16] = biological target: T3, Tyrosinase (Agaricus bisporus); assay: Inhibition of mushroom tyrosinase using L-tyrosine as substrate assessed as amount of dopachrome produced at 0.5 uM after 30 mins by spectrophotometry
[17] = biological target: T3, Tyrosinase (Agaricus bisporus); assay: Inhibition of mushroom tyrosinase using L-tyrosine as substrate assessed as amount of dopachrome produced at 2 uM after 30 mins by spectrophotometry
[18] = system: B16-F10; assay: Inhibition of alphaMSH-induced melanin production in mouse B16F10 cells after 48 hrs by melanin content assay; format: functional, cell-based
[19] = biological target: T2, Tyrosinase (Mus musculus); assay: Inhibition of tyrosinase in mouse B16F10 cells assessed as L-DOPA oxidation after 24 hrs by ELISA; format: cell-based; conditions: B16-F10

Oc1ccc(-c2nc3cc4c(cc3s2)CCC4)c(O)c1
IC50 [1]: 500 nM | viability at 48 h, 20 µM [2]: 95.6% | inhibition at 0.2 µM [3]: 94.5% | inhibition [4]: 133% | inhibition at 0.05 µM [5]: 121% | inhibition [6]: 22.2% | viability at 48 h, 5 µM [7]: 95% | viability at 48 h, 40 µM [8]: 88.4% | inhibition at 2 µM [9]: 88.8% | inhibition [10]: 73.6% | inhibition at 0.1 µM [11]: 101% | inhibition [12]: 68.3% | viability at 48 h, 10 µM [13]: 98.1% | inhibition [14]: 109% | viability at 48 h, 2 µM [15]: 97.9% | inhibition [16]: 56.5% | inhibition [17]: 83.5% | inhibition [18]: Dose-dependent effect | inhibition [19]: Dose-dependent effect
